In patent US12723063B2, “GIPR-agonist compounds” (Eli Lilly and Company, priority 2019, dated 2026):
*1 amine or outer side, *2 acyl side, *3 side chain or, on linkers, in order; H or OH if unused. Where a SMILES comes first, the peptide text is derived from it. Side-chain parts run from the residue outwards. [ ]: non-standard residue; d: D form. The star is where a group is joined. C20 diacid = O=C(O)CCCCCCCCCCCCCCCCCCC(=O)*; αMePhe(2-F) = C[C@](N)(Cc1ccccc1F)C(=O)O; γGlu = O=C(O)[C@H](CCC(=O)[*:2])N[*:1]; 4Pal = N[C@@H](Cc1ccncc1)C(=O)O; αMeL = CC(C)C[C@](C)(N)C(=O)O; AEEA = NCCOCCOCC(=O)O; Aib = CC(C)(N)C(=O)O

How the values were obtained:
[1] = molecular target: T1, human GIPR (Homo sapiens, UniProt P48546); assay: [125I]-GIP binding, SPA with WGA beads, 0.1% bacitracin; conditions: geometric mean, read-out: hGIPR Ki
T1 construct: expressed in transfected cells; crude membranes
T1 sequence (P48546 22-466): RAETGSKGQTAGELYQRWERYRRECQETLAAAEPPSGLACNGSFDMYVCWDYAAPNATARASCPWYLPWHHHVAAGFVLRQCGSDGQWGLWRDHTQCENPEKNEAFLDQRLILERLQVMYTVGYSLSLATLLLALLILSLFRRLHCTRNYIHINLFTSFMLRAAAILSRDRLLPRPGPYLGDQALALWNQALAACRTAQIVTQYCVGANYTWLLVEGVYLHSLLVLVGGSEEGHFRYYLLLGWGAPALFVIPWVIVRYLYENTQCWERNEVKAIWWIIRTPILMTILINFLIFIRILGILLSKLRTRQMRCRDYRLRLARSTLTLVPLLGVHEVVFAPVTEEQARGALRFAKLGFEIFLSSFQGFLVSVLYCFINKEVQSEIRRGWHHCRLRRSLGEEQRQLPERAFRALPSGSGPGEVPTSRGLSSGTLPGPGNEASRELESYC
How it was run: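 Ki values are geometric means (SEM, n independent days), derived from four-parameter nonlinear regression of IC50. Membranes came from hGIPR-expressing CHO cells.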

[2] = molecular target: T2, human GLP-1R (Homo sapiens, UniProt P43220); assay: [125I]-GLP-1 binding, SPA with WGA beads, 0.1% bacitracin; conditions: geometric mean, read-out: hGLP1R Ki
T2 construct: expressed in transfected cells; crude membranes
How it was run: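 Binding buffer was 25 mM HEPES pH 7.4 with 2.5 mM CaCl2, 1 mM MgCl2, 0.1% (w/v) bacitracin, 0.003% Tween-20 and EDTA-free protease inhibitors. Four-parameter regression gave IC50, converted to Ki (geometric mean, SEM, n independent days).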

[3] = molecular target: T3, human GcgR (Homo sapiens, UniProt P47871); assay: [125I]-Glucagon binding, SPA with WGA beads, 0.1% bacitracin; conditions: geometric mean, read-out: hGcgR Ki
T3 construct: expressed in transfected cells; crude membranes
How it was run: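 SPA competition binding with WGA beads on crude membranes from HEK293 cells stably expressing hGcgR. Buffer: 25 mM HEPES pH 7.4, 2.5 mM CaCl2, 1 mM MgCl2, 0.1% bacitracin, 0.003% Tween-20; 10-point 3-fold dilutions, NSB with 1 μM Gcg.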

T3 sequence (P47871 26-477): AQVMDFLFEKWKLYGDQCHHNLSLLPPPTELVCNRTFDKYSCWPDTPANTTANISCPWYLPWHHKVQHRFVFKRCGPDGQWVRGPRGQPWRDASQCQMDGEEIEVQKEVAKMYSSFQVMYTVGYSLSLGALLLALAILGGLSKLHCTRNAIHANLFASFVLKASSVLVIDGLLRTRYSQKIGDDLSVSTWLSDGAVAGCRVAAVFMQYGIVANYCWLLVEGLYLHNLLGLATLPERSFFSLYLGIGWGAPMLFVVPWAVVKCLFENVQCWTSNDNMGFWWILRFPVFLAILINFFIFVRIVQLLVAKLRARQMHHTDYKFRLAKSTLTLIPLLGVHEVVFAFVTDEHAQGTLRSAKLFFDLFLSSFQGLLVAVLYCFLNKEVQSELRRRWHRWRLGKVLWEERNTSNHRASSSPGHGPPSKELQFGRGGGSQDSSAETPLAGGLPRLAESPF
T2 sequence (P43220 24-463): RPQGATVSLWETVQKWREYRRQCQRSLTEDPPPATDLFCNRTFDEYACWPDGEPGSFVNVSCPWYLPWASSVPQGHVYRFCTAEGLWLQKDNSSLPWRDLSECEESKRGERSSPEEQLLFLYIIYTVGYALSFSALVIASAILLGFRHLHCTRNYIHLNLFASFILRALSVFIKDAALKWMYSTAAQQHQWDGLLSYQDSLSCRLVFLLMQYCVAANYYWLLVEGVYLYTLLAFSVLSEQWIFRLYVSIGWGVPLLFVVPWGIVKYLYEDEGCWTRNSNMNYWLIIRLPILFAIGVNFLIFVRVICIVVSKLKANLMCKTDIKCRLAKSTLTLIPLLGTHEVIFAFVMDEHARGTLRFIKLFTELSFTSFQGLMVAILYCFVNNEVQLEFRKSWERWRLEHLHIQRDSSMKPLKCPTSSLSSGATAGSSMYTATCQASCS

SMILES | Ki [1] | Ki [2] | Ki [3]
CC[C@H](C)[C@H](NC(=O)[C@H](Cc1ccccc1)NC(=O)[C@@H](NC(=O)CNC(=O)[C@H](CCC(=O)O)NC(=O)C(C)(C)NC(=O)[C@@H](N)Cc1ccc(O)cc1)[C@@H](C)O)C(=O)N[C@@H](CO)C(=O)N[C@@H](CC(=O)O)C(=O)N[C@@H](Cc1ccc(O)cc1)C(=O)N[C@@H](CO)C(=O)N[C@H](C(=O)N[C@@](C)(CC(C)C)C(=O)N[C@@H](CC(C)C)C(=O)N[C@@H](CC(=O)O)C(=O)N[C@@H](CCCCN)C(=O)N[C@@H](CCCCNC(=O)COCCOCCNC(=O)COCCOCCNC(=O)CC[C@H](NC(=O)CCCCCCCCCCCCCCCCCCC(=O)O)C(=O)O)C(=O)N[C@@H](Cc1c[nH]cn1)C(=O)N[C@@H](CCC(N)=O)C(=O)NC(C)(C)C(=O)N[C@@H](CC(=O)O)C(=O)N[C@@H](Cc1ccccc1)C(=O)N[C@H](C(=O)N[C@@H](CCC(=O)O)C(=O)N[C@@H](Cc1ccncc1)C(=O)N[C@@H](CC(C)C)C(=O)N[C@@H](CC(C)C)C(=O)N[C@@H](CCC(=O)O)C(=O)N[C@H](C(=O)NCC(=O)N1CCC[C@H]1C(=O)N[C@@H](CO)C(=O)N[C@@H](CO)C(=O)NCC(=O)N[C@@H](C)C(=O)N1CCC[C@H]1C(=O)N1CCC[C@H]1C(=O)N1CCC[C@H]1C(=O)N[C@@H](CO)C(N)=O)[C@@H](C)O)C(C)C)[C@@H](C)CC [Example 45] (H-Y[Aib]EGTFISDYSI[αMeL]LDKK([AEEA-AEEA-γGlu-C20 diacid])HQ[Aib]DFVE[4Pal]LLETGPSSGAPPPS-NH2) | 0.0663 nM | > 909 nM | 660 nM
CC[C@H](C)[C@H](NC(=O)[C@H](Cc1ccccc1)NC(=O)[C@@H](NC(=O)CNC(=O)[C@H](CCC(=O)O)NC(=O)C(C)(C)NC(=O)[C@@H](N)Cc1ccc(O)cc1)[C@@H](C)O)C(=O)N[C@@H](CO)C(=O)N[C@@H](CC(=O)O)C(=O)N[C@@H](Cc1ccc(O)cc1)C(=O)N[C@@H](CO)C(=O)N[C@H](C(=O)N[C@@](C)(CC(C)C)C(=O)N[C@@H](CC(C)C)C(=O)N[C@@H](CC(=O)O)C(=O)N[C@@H](CCCCN)C(=O)N[C@@H](CCCCNC(=O)COCCOCCNC(=O)COCCOCCNC(=O)CC[C@H](NC(=O)CCCCCCCCCCCCCCCCCCC(=O)O)C(=O)O)C(=O)N[C@@H](Cc1c[nH]cn1)C(=O)N[C@@H](CCC(N)=O)C(=O)NC(C)(C)C(=O)N[C@@H](CC(=O)O)C(=O)N[C@@H](Cc1ccccc1)C(=O)N[C@H](C(=O)N[C@@H](CCC(=O)O)C(=O)N[C@@H](Cc1c[nH]c2ccccc12)C(=O)N[C@@H](CC(C)C)C(=O)N[C@@H](CC(C)C)C(=O)N[C@@H](CCC(=O)O)C(=O)N[C@H](C(=O)NCC(=O)N1CCC[C@H]1C(=O)N[C@@H](CO)C(=O)N[C@@H](CO)C(=O)NCC(=O)N[C@@H](C)C(=O)N1CCC[C@H]1C(=O)N1CCC[C@H]1C(=O)N1CCC[C@H]1C(=O)N[C@@H](CO)C(N)=O)[C@@H](C)O)C(C)C)[C@@H](C)CC [Example 71] (H-Y[Aib]EGTFISDYSI[αMeL]LDKK([AEEA-AEEA-γGlu-C20 diacid])HQ[Aib]DFVEWLLETGPSSGAPPPS-NH2) | 0.0422 nM | 347 nM | 102 nM
CC[C@H](C)[C@H](NC(=O)[C@H](Cc1ccccc1)NC(=O)[C@@H](NC(=O)CNC(=O)[C@H](CCC(=O)O)NC(=O)C(C)(C)NC(=O)[C@@H](N)Cc1ccc(O)cc1)[C@@H](C)O)C(=O)N[C@@H](CO)C(=O)N[C@@H](CC(=O)O)C(=O)N[C@@H](Cc1ccc(O)cc1)C(=O)N[C@@H](CO)C(=O)N[C@H](C(=O)N[C@@](C)(CC(C)C)C(=O)N[C@@H](CC(C)C)C(=O)N[C@@H](CC(=O)O)C(=O)N[C@@H](CCCCN)C(=O)N[C@@H](CCCCNC(=O)COCCOCCNC(=O)COCCOCCNC(=O)CC[C@H](NC(=O)CCCCCCCCCCCCCCCCCCC(=O)O)C(=O)O)C(=O)N[C@@H](Cc1c[nH]cn1)C(=O)N[C@@H](CCC(N)=O)C(=O)NC(C)(C)C(=O)N[C@@H](CCC(=O)O)C(=O)N[C@@H](Cc1ccccc1)C(=O)N[C@H](C(=O)N[C@@H](CCC(=O)O)C(=O)N[C@@H](Cc1ccncc1)C(=O)N[C@@H](CC(C)C)C(=O)N[C@@H](CC(C)C)C(=O)N[C@@H](C)C(=O)N[C@H](C(=O)NCC(=O)N1CCC[C@H]1C(=O)N[C@@H](CO)C(=O)N[C@@H](CO)C(=O)NCC(=O)N[C@@H](C)C(=O)N1CCC[C@H]1C(=O)N1CCC[C@H]1C(=O)N1CCC[C@H]1C(=O)N[C@@H](CO)C(N)=O)[C@@H](C)O)C(C)C)[C@@H](C)CC [Example 58] (H-Y[Aib]EGTFISDYSI[αMeL]LDKK([AEEA-AEEA-γGlu-C20 diacid])HQ[Aib]EFVE[4Pal]LLATGPSSGAPPPS-NH2) | 0.0324 nM | 459 nM | 418 nM
CC[C@H](C)[C@H](NC(=O)[C@H](CO)NC(=O)[C@H](Cc1ccc(O)cc1)NC(=O)[C@H](CC(=O)O)NC(=O)[C@H](CO)NC(=O)[C@@H](NC(=O)[C@](C)(Cc1ccccc1F)NC(=O)[C@@H](NC(=O)CNC(=O)[C@H](CCC(=O)O)NC(=O)C(C)(C)NC(=O)[C@@H](N)Cc1ccc(O)cc1)[C@@H](C)O)[C@@H](C)CC)C(=O)N[C@@H](C)C(=O)N[C@@H](CC(C)C)C(=O)N[C@@H](CC(=O)O)C(=O)N[C@@H](CCCCN)C(=O)N[C@@H](CCCCNC(=O)COCCOCCNC(=O)COCCOCCNC(=O)CC[C@H](NC(=O)CCCCCCCCCCCCCCCCCCC(=O)O)C(=O)O)C(=O)N[C@@H](Cc1c[nH]cn1)C(=O)N[C@@H](CCC(N)=O)C(=O)NC(C)(C)C(=O)N[C@@H](CC(=O)O)C(=O)N[C@@H](Cc1ccccc1)C(=O)N[C@H](C(=O)N[C@@H](CCC(=O)O)C(=O)N[C@@H](Cc1ccncc1)C(=O)N[C@@H](CC(C)C)C(=O)N[C@@H](CC(C)C)C(=O)N[C@@H](CCC(=O)O)C(=O)NCC(=O)NCC(=O)N1CCC[C@H]1C(=O)N[C@@H](CO)C(=O)N[C@@H](CO)C(=O)NCC(=O)N[C@@H](C)C(=O)N1CCC[C@H]1C(=O)N1CCC[C@H]1C(=O)N1CCC[C@H]1C(=O)N[C@@H](CO)C(N)=O)C(C)C [Example 39] (H-Y[Aib]EGT[αMePhe(2-F)]ISDYSIALDKK([AEEA-AEEA-γGlu-C20 diacid])HQ[Aib]DFVE[4Pal]LLEGGPSSGAPPPS-NH2) | 0.0444 nM | 235 nM | 76 nM
CC[C@H](C)[C@H](NC(=O)[C@H](CO)NC(=O)[C@H](Cc1ccc(O)cc1)NC(=O)[C@H](CC(=O)O)NC(=O)[C@H](CO)NC(=O)[C@@H](NC(=O)[C@](C)(CC(C)C)NC(=O)[C@@H](NC(=O)CNC(=O)[C@H](CCC(=O)O)NC(=O)C(C)(C)NC(=O)[C@@H](N)Cc1ccc(O)cc1)[C@@H](C)O)[C@@H](C)CC)C(=O)N[C@@H](C)C(=O)N[C@@H](CC(C)C)C(=O)N[C@@H](CC(=O)O)C(=O)N[C@@H](CCCCN)C(=O)N[C@@H](CCCCNC(=O)COCCOCCNC(=O)COCCOCCNC(=O)CC[C@H](NC(=O)CCCCCCCCCCCCCCCCCCC(=O)O)C(=O)O)C(=O)N[C@@H](Cc1c[nH]cn1)C(=O)N[C@@H](CCC(N)=O)C(=O)NC(C)(C)C(=O)N[C@@H](CCC(=O)O)C(=O)N[C@@H](Cc1ccccc1)C(=O)N[C@H](C(=O)N[C@@H](CC(N)=O)C(=O)N[C@@H](Cc1ccc(O)cc1)C(=O)N[C@@H](CC(C)C)C(=O)N[C@@H](CC(C)C)C(=O)N[C@@H](C)C(=O)N[C@H](C(=O)NCC(=O)N1CCC[C@H]1C(=O)N[C@@H](CO)C(=O)N[C@@H](CO)C(=O)NCC(=O)N[C@@H](C)C(=O)N1CCC[C@H]1C(=O)N1CCC[C@H]1C(=O)N1CCC[C@H]1C(=O)N[C@@H](CO)C(N)=O)[C@@H](C)O)C(C)C [Example 35] (H-Y[Aib]EGT[αMeL]ISDYSIALDKK([AEEA-AEEA-γGlu-C20 diacid])HQ[Aib]EFVNYLLATGPSSGAPPPS-NH2) | 0.0351 nM | 177 nM | > 960 nM
CC[C@H](C)[C@H](NC(=O)[C@H](Cc1ccccc1)NC(=O)[C@@H](NC(=O)CNC(=O)[C@H](CCC(=O)O)NC(=O)C(C)(C)NC(=O)[C@@H](N)Cc1ccc(O)cc1)[C@@H](C)O)C(=O)N[C@@H](CO)C(=O)N[C@@H](CC(=O)O)C(=O)N[C@@H](Cc1ccc(O)cc1)C(=O)N[C@@H](CO)C(=O)N[C@H](C(=O)N[C@@](C)(CC(C)C)C(=O)N[C@@H](CC(C)C)C(=O)N[C@@H](CC(=O)O)C(=O)N[C@@H](CCCCN)C(=O)N[C@@H](CCCCNC(=O)COCCOCCNC(=O)COCCOCCNC(=O)CC[C@H](NC(=O)CCCCCCCCCCCCCCCCCCC(=O)O)C(=O)O)C(=O)N[C@@H](Cc1c[nH]cn1)C(=O)N[C@@H](CCC(N)=O)C(=O)NC(C)(C)C(=O)N[C@@H](CC(=O)O)C(=O)N[C@@H](Cc1ccccc1)C(=O)N[C@H](C(=O)N[C@@H](CCC(=O)O)C(=O)N[C@@H](Cc1c[nH]c2ccccc12)C(=O)N[C@@H](CC(C)C)C(=O)N[C@@H](CC(C)C)C(=O)N[C@@H](C)C(=O)NCC(=O)NCC(=O)N1CCC[C@H]1C(=O)N[C@@H](CO)C(=O)N[C@@H](CO)C(=O)NCC(=O)N[C@@H](C)C(=O)N1CCC[C@H]1C(=O)N1CCC[C@H]1C(=O)N1CCC[C@H]1C(=O)N[C@@H](CO)C(N)=O)C(C)C)[C@@H](C)CC [Example 54] (H-Y[Aib]EGTFISDYSI[αMeL]LDKK([AEEA-AEEA-γGlu-C20 diacid])HQ[Aib]DFVEWLLAGGPSSGAPPPS-NH2) | 0.0326 nM | 49.9 nM | 386 nM
